Results as given in patent US5409934A, “Xanthine derivatives” (priority 1990, dated 1995).

How the values were obtained:
PDE (V) = PDE (V) (Sus scrofa, UniProt A0A287B475); assay: Inhibition of phosphodiesterase PDE V (cGMP-specific), boronate column method; format: biochemical, porcine; conditions: 37° C., pH 7.5; read-out: Inhibition of PDE expressed as IC50, PDE (V)
Protocol: The latter were separated by a cGMP-affinity column. The resolved PDEs were separately rechromatographed on a 1 ml Mono Q column. cGMP-selective PDE (PDE V) was obtained from porcine lung using chromatography on DEAE-cellulose and Mono Q columns; a calmodulin-affinity column was used to remove residual PDE I activity. PDEV This isoenzyme had high affinity for cGMP. […] PDE activity was assayed by the boronate column method as previously described (Reeves et al., 1987). The enzymes were assayed by incubation at 37° C. for 4-30 min in 50 mM Tris, 5 mM MgCl2, pH 7.5 with ^3 H-labelled cyclic nucleotide (4×105 disintegrations min^-1) and ^14 C-labelled nucleotide 5'-monophosphate (3×10^3 disintegrations min^-1). The assay was stopped by boiling, and the ^3 H-labelled 5'-monophosphate product separated from substrate on boronate columns. […] The column was extensively washed with the same buffer, and the 5'-nucleotide eluted with 6mL of 0.25M acetic acid.

PDE (IV) = assay: Inhibition of phosphodiesterase PDE IV (cAMP-specific), boronate column method; format: biochemical, guinea-pig; conditions: cAMP as substrate, 37° C., pH 7.5; read-out: Inhibition of PDE expressed as IC50, PDE (IV)
Protocol: (§1) The Ca^2+ /calmodulin-stimulated PDE (PDE I, see Table 1 and Beavo and Reifsynder (1990) for nomenclature) was prepared from bovine cardiac ventricle. Following chromatography on a Mono Q column, the fractions showing stimulation of PDE activity by CA^2+ and calmodulin were pooled and further purified on a calmodulin-affinity column. […] Initial chromatography on a 20 ml Mono Q column resolved PDE III from a peak that contained both PDE II and PDE IV. The latter were separated by a cGMP-affinity column. The resolved PDEs were separately rechromatographed on a 1 ml Mono Q column. cGMP-selective PDE (PDE V) was obtained from porcine lung using chromatography on DEAE-cellulose and Mono Q columns; a calmodulin-affinity column was used to remove residual PDE I activity.
PDE activity was assayed by the boronate column method as previously described (Reeves et al., 1987). The enzymes were assayed by incubation at 37° C. for 4-30 min in 50 mM Tris, 5 mM MgCl2, pH 7.5 with ^3 H-labelled cyclic nucleotide (4×105 disintegrations min^-1) and ^14 C-labelled nucleotide 5'-monophosphate (3×10^3 disintegrations min^-1). The assay was stopped by boiling, and the ^3 H-labelled 5'-monophosphate product separated from substrate on boronate columns. The reaction mixture was diluted with 0.5 mL 100 mM HEPES [N-(2-hydroxyethyl)piperazine-N ^1 -2-ethanesulfonic acid], 100 mM NaCl, pH 8.5, and applied to the column. The column was extensively washed with the same buffer, and the 5'-nucleotide eluted with 6mL of 0.25M acetic acid.

[1] = tested on: cGMP-specific PDE (PDE V); assay: Kinetic properties of phosphodiesterase isoenzyme V; format: biochemical, porcine; conditions: substrate of PDE V
Protocol: as §1, with “Following” for “The Ca^2+ /calmodulin-stimulated PDE (PDE I, see Table 1 and Beavo and Reifsynder (1990) for nomenclature) was prepared from bovine cardiac ventricle. Following”
PDEV This isoenzyme had high affinity for cGMP.
(§2) The assay was stopped by boiling, and the ^3 H-labelled 5'-monophosphate product separated from substrate on boronate columns. The reaction mixture was diluted with 0.5 mL 100 mM HEPES [N-(2-hydroxyethyl)piperazine-N ^1 -2-ethanesulfonic acid], 100 mM NaCl, pH 8.5, and applied to the column. The column was extensively washed with the same buffer, and the 5'-nucleotide eluted with 6mL of 0.25M acetic acid.

[2] = tested on: Ca^2+ /calmodulin-stimulated PDE (PDE I); assay: Kinetic properties of phosphodiesterase isoenzyme I; format: biochemical, bovine; conditions: substrate of PDE I
Protocol: as §1, with “Following” for “The Ca^2+ /calmodulin-stimulated PDE (PDE I, see Table 1 and Beavo and Reifsynder (1990) for nomenclature) was prepared from bovine cardiac ventricle. Following”
as §2

[3] = tested on: cGMP-inhibited PDE (PDE III); assay: Kinetic properties of phosphodiesterase isoenzyme III; format: biochemical, guinea-pig; conditions: substrate of PDE III
Protocol: as §1, with “Following” for “The Ca^2+ /calmodulin-stimulated PDE (PDE I, see Table 1 and Beavo and Reifsynder (1990) for nomenclature) was prepared from bovine cardiac ventricle. Following”
as §2

[4] = tested on: cGMP-stimulated PDE (PDE II); assay: Kinetic properties of phosphodiesterase isoenzyme II; format: biochemical, guinea-pig; conditions: substrate of PDE II; enzyme displayed positive cooperativity
Protocol: as §1, with “Following” for “The Ca^2+ /calmodulin-stimulated PDE (PDE I, see Table 1 and Beavo and Reifsynder (1990) for nomenclature) was prepared from bovine cardiac ventricle. Following”
as §2

[5] = tested on: cAMP-specific PDE (PDE IV); assay: Kinetic properties of phosphodiesterase isoenzyme IV; format: biochemical, guinea-pig; conditions: substrate of PDE IV, class symbol
Protocol: as §1, with “Following” for “The Ca^2+ /calmodulin-stimulated PDE (PDE I, see Table 1 and Beavo and Reifsynder (1990) for nomenclature) was prepared from bovine cardiac ventricle. Following”
as §2

blood eosinophilia = assay: Sephadex induced blood eosinophilia in the rat; format: in vivo, Male Charles River Sprague Dawley rats; conditions: 30 min before each Sephadex injection, n = 6
Protocol: Induction of blood eosinonhilia and the effects of drugs.
Male Charles River Sprague Dawley rats weighing between 270 to 400 g were used.
The method used was a modification of that described by Laycock et al (Int. Arch. Appl. Immunol, (1986). 81, 363).
Sephadex G200, particle size 40 to 120 micron, was suspended in isotonic saline at 0.5 mg/ml, and stored for 48 h at 4° C. 1 ml of the suspension was given intravenously to rats on days 0, 2 and 5. The test compound was given before the Sephadex on each occasion, with a contact time expected to give maximum activity at the time of the Sephadex administration. Blood was taken from the tail vein of the rats on day 7 for the determination of total and differential leucocyte counts.
A control group of at least 6 animals was included each time a compound was evaluated. The control group received Sephadex and the vehicle without test compound. The results in the drug treated animals were compared with the control group.
[…] of blood, taken from the tail vein of the rats, were added to 10 ml of Isoton II and, within 30rain, Zapoglobin (3 drops) was added, to lyse the erythrocytes. Five minutes later the total cell count was determined using a Coulter Counter Model DN. […] A minimum of 400 cells were counted on each slide.
Probability values were calculated using the Student's t test. […]

| Compound | IC50 (PDE (V)) [µM] | IC50 (PDE (IV)) [µM] | also measured |
| --- | --- | --- | --- |
| COc1ccc(S(=O)(=O)n2c(N)nc3c2c(=O)n(CC2CC2)c(=O)n3CC2CC2)cc1OC [Example 3, 8-Amino-1,3-di-(cyclopropylmethyl)-7-(3,4-dimethoxy-benzenesulphonyl)xanthine] | 0.2 | 4 |  |
| Nc1nc2c(c(=O)n(CC3CC3)c(=O)n2CC2CC2)n1S(=O)(=O)c1ccccc1 [Example 1, 8-Amino-7-benzenesulphonyl-1,3-di(cyclopropylmethyl)xanthine] | 4 | 3 |  |
| Nc1nc2c(ncn2[C@@H]2O[C@@H]3COP(=O)(O)O[C@H]3[C@H]2O)c(=O)[nH]1 [cGMP] |  |  | Km [1]: 1 µM; Km [2]: 5 µM; Km [3]: 0.1 µM; Km [4]: 14 µM; Km [5]: > 100 µM |
| Nc1nc2c(c(=O)n(CC3CC3)c(=O)n2CC2CC2)n1S(=O)(=O)c1ccc(Cl)cc1 [Example 9, 8-Amino-1,3-di(cylcopropylmethyl)-7-(4-chlorobenzenesulphonyl)xanthine] |  | 4 |  |
| COc1ccc(S(=O)(=O)Nc2nc3c(c(=O)n(CC4CC4)c(=O)n3CC3CC3)n2Cc2cc(OC)c(OC)c(OC)c2)cc1 [Example 25, 1,3-Di(cyclopropylmethyl)-8-(4-methoxybenzenesulphonamido)-7-(3,4,5-trimethoxybenzyl)xanthine] |  | > 100 |  |
| COc1ccc(Cn2c(N(S(=O)(=O)c3ccccc3)S(=O)(=O)c3ccccc3)nc3c2c(=O)n(CC2CC2)c(=O)n3CC2CC2)cc1 [Example 23, 1,3-Di(cyclopropylmethyl)-8-di(benzenesulphonyl)amino-7-(4-methoxy-benzyl)xanthine] | 7 | > 100 |  |
| COc1ccc(S(=O)(=O)n2c(N)nc3c2c(=O)n(CC2CC2)c(=O)n3CC2CC2)cc1 [Example 2, 8-Amino-1,3-di(cyclopropylmethyl)-7-(4-methoxybenzenesulphonyl)xanthine] | 0.4 | 3 | Eosinophilia, % of Control Mean ± SEM (blood eosinophilia; 20 mg/kg orally, *p < 0.05): 62 ± 7 % of Control; Eosinophilia, % of Control Mean ± SEM (blood eosinophilia; 50 mg/kg orally, **p < 0.01): 51 ± 7 % of Control |
| COc1ccc(S(=O)(=O)n2c(Cl)nc3c2c(=O)n(CC2CC2)c(=O)n3CC2CC2)cc1 [Example 7, 8-Chloro-1,3-di(cyclopropylmethyl)-7-(4-methoxybenzenesulphonyl)xanthine] | > 100 | 11 |  |
